Like-named read-outs stand apart in the source and are kept apart here.
Key:
[1] = parameters: species or system mice; conditions: mouse, in vivo
Description: 14 d acute oral toxicity of compound 1 of formula I was performed. Three doses were selected: 47, 23, 12 and 0 mg/kg bw (Vehicle control) of compound 1 of formula I was administered by single oral gavage using blunt ended steel canula.
Before sacrifice, blood was drawn from the retro-orbital sinus of mice and rats with the help of non-heparinised capillary tubes and hematological parameters were assessed with the help of Automatic Hematology Analyzer (Medonic).

[2] = tested on: OVA sensitized, OVA challenged mice; test: Airway hyperresponsiveness to methacholine (whole-body plethysmography), OVA mouse model of asthma; type: in vivo, BALB/c mice; conditions: for AHR to Mch / lung function compared with dexamethasone: 10 mg/kg orally twice a day, DEX 0.75 mg/kg once a day; for MCh PC200 (AHR to methacholine): 0.05, 0.1, 5 and 10 mg/kg orally twice per day
Description: BALB/c mice (6-8 wks old, 18-22 grams) were obtained from IICB Kolkata and VPCI, Delhi. Ethical clearance has been obtained from Institutional Ethical Committee. Mice were acclimatized for at least one week under the laboratory conditions (25±2° C., 60% humidity) before starting the experiments. After one week, baseline Penh (enhanced pause) was measured in Buxco unrestrained single chamber plethysmography (WBP, Buxco, Troy, N.Y.).
Mice were sensitized with 0.2 ml PBS containing 50 μg ovalbumin (OVA) (Sigma, USA) and 4 mg aluminum hydroxide in saline intraperitonially (i.p.) on days 0, 7 and 14 as shown in FIG. 1. Sham group mice were sensitized with only alum dissolved in PBS. From day 18 to 27, mice were exposed to aerosol of OVA (3%) inhalation 25 minutes daily in a Plexiglas chamber (20×20×10 cm^3). The aerosol was generated by a nebulizer (OMRON CX model) with an airflow rate of 9 L/minute. Sham group mice were challenged with PBS alone.
Compound 1 of formula I was dissolved in 50% ethanol. So 50% ethanol was used as a vehicle. Group I was alum sensitized, saline challenged and treated with vehicle (SHAM/SAL/VEH), group II was OVA sensitized, OVA challenged and treated with 50% ethanol as vehicle (OVA/OVA/VEH), group III, IV, V, VI were OVA sensitized, OVA challenged and treated with 0.05, 0.1, 5 and 10 mg/kg compound 1 of formula I. Drug was given in the volume of 10 μl orally twice per day. Confirmatory experiments were done with two concentrations of compound 1 of formula I (5 and 10 mg/kg twice a day), and these findings were compared with parallel group of mice which were OVA-sensitized, -OVA challenged and treated orally once a day with 0.75 mg/kg Dexamethasone (OVA/OVA/DEX).
Airway responsiveness was measured by barometric plethysmography using whole-body plethysmography (WBP; Buxco, Troy, N.Y.) 12 hours after last saline or ovalbumin challenge. At the time of measurement the animals were awake and breathing spontaneously. Enhanced pause (Penh) to methacholine as measured using barometric plethysmography is a valid indicator of bronchoconstriction in mice and can be used to measure AHR (Am J Respir Crit Care Med 1997, 156, 766-775). Baseline Penh was taken initially, and then PBS followed by increasing concentrations (4-48 mg/ml) of methacholine was nebulized through an inlet of the main chamber for 3 min. Readings were taken and averaged for 5 minutes from the starting time of nebulisation. Airway responsiveness to MCh was evaluated by the concentration of MCh required to increase the Penh to twice the baseline value (MCh PC200).

[3] = tested on: oral KB carcinoma cell line; conditions: cited from earlier work
[4] = 90 d sub-chronic oral toxicity: immunotoxicity; type: in vivo
Description: Immunotoxicity in mice was performed in accordance to EPA guideline (1998). […] Humoral immunity was measured in terms of HA titer and plaque forming cell assay. […] Cell mediated immunity was measured in terms of % increase in paw volume in mice sensitized with SRBC.
Earlier, LD50 of ICB 14 C6 was derived from in vitro cytotoxicity assay by NRUmethod in 3T3 cells. […] For 90d sub-chronic toxicity study the highest dose selected was one-fourth of the limit dose. Four different doses of ICB14 C6 (47, 23, 12 and 0 [vehicle] mg/kg body weight) were prepared in ground nut oil daily for 5 days a week for 90d.

[5] = listed as compound of formula I

SMILES: C=CCc1ccc(O)c(O)c1 [Compound 1, 4-allyl-benzene-1,2-diol]
- GRAN ([1]; 12 mg/kg): 9.82 ± 3.49%
- HCT ([1]; 12 mg/kg): 39.72 ± 5.27%
- HGB ([1]; 12 mg/kg): 12.6 ± 2.50 g/dL
- LYMF ([1]; 12 mg/kg): 8.54 ± 14.39%
- MCV ([1]; 12 mg/kg): 41.76 ± 1.268 μm^3
- MPV ([1]; 12 mg/kg): 6.96 ± 0.33 μm^3
- PLT ([1]; 12 mg/kg): 588 ± 198 10^3/mm^3
- RBC ([1]; 12 mg/kg): 9.52 ± 1.313 ×10^6/mm^3
- WBC ([1]; 12 mg/kg): 9.1 ± 0.86 ×10^3/mm^3
- GRAN ([1]; 23 mg/kg): 10.8 ± 2.30%
- HCT ([1]; 23 mg/kg): 42.05 ± 7.86%
- HGB ([1]; 23 mg/kg): 13.22 ± 1.72 g/dL
- LYMF ([1]; 23 mg/kg): 2.12 ± 3.45%
- MCV ([1]; 23 mg/kg): 41.675 ± 2.069 μm^3
- MPV ([1]; 23 mg/kg): 6.95 ± 0.36 μm^3
- PLT ([1]; 23 mg/kg): 518 ± 40 10^3/mm^3
- RBC ([1]; 23 mg/kg): 10.05 ± 1.477 ×10^6/mm^3
- WBC ([1]; 23 mg/kg): 13.52 ± 2.71 ×10^3/mm^3
- GRAN ([1]; 47 mg/kg): 9.46 ± 2.33%
- HCT ([1]; 47 mg/kg): 39.12 ± 1.76%
- HGB ([1]; 47 mg/kg): 13.2 ± 0.65 g/dL
- LYMF ([1]; 47 mg/kg): 1.0 ± 0.87%
- MCV ([1]; 47 mg/kg): 40.45 ± 1.126 μm^3
- MPV ([1]; 47 mg/kg): 7.1 ± 0.32 μm^3
- PLT ([1]; 47 mg/kg): 476.5 ± 124^ 10^3/mm^3
- RBC ([1]; 47 mg/kg): 9.74 ± 0.749 ×10^6/mm^3
- WBC ([1]; 47 mg/kg): 11.02 ± 2.61 ×10^3/mm^3
- AHR to Mch / lung function compared with dexamethasone [2]: able to improve lung function almost similar to the level of dexamethasone
- AHR to Mch / lung function compared with dexamethasone [2, 5]: significantly reduced the AHR to Mch as effective as DEX
- MCh PC200 (AHR to methacholine) [2]: increased in a dose dependent manner
- MCh PC200 (AHR to methacholine) [2, 5]: effective at higher concentrations
- cell cycle arrest and apoptosis [3]: induce cell cycle arrest and apoptosis
- Bone marrow cell viability % ([4]; 90 d, 12 mg/kg bw): 97.26 ± 0.88%
- Lymph node lymphocyte viability % (pooled) ([4]; 90 d, 12 mg/kg bw): 97.40 ± 0.61%
- Splenocyte viability % ([4]; 90 d, 12 mg/kg bw): 96.79 ± 0.36%
- Bone marrow cell viability % ([4]; 90 d, 23 mg/kg bw): 96.80 ± 1.15%
- Lymph node lymphocyte viability % (pooled) ([4]; 90 d, 23 mg/kg bw): 98.28 ± 0.80%
- Splenocyte viability % ([4]; 90 d, 23 mg/kg bw): 96.56 ± 0.80%
- Bone marrow cell viability % ([4]; 90 d, 47 mg/kg bw): 95.45 ± 0.31%
- Lymph node lymphocyte viability % (pooled) ([4]; 90 d, 47 mg/kg bw): 98.17 ± 0.05%
- Splenocyte viability % ([4]; 90 d, 47 mg/kg bw): 96.45 ± 0.62%
- Lymph node lymphocyte, splenocytes and bone marrow cell viabilities ([4]; 90 d, all the groups): > 94%
- B cell function (PFC) ([4]; mouse, in vivo): Dose dependant decrease in B cell function
- Total IgA ([4]; mouse, in vivo, 12 mg/kg): 264.25 ± 28.6 ng/mL
- Total IgE ([4]; mouse, in vivo, 12 mg/kg): 0.69 ± 0.115
- Total IgG ([4]; mouse, in vivo, 12 mg/kg): 12.98 ± 0.53 mg/mL
- Total IgM ([4]; mouse, in vivo, 12 mg/kg): 6.65 ± 0.13
- DTH response (% increase in paw volume) ([4]; mouse, in vivo, 12 mg/kg, 90 d): 12.12 ± 2.96%
- HA tire (reciprocal of the last dilution showing positive reaction) ([4]; mouse, in vivo, 12 mg/kg, 90 d): 1280
- PFC ([4]; mouse, in vivo, 12 mg/kg, 90 d): 5533 ± 437 per 10^6lymphocytes
- Total IgA ([4]; mouse, in vivo, 23 mg/kg): 207.25 ± 9.7 ng/mL
- Total IgE ([4]; mouse, in vivo, 23 mg/kg): 0.74 ± 0.23
- Total IgG ([4]; mouse, in vivo, 23 mg/kg): 15.21 ± 0.31 mg/mL
- Total IgM ([4]; mouse, in vivo, 23 mg/kg): 0.57 ± 0.17
- DTH response (% increase in paw volume) ([4]; mouse, in vivo, 23 mg/kg, 90 d): 11.55 ± 3.77%
- HA tire (reciprocal of the last dilution showing positive reaction) ([4]; mouse, in vivo, 23 mg/kg, 90 d): 640
- PFC ([4]; mouse, in vivo, 23 mg/kg, 90 d): 4911 ± 873 per 10^6lymphocytes
- Total IgA ([4]; mouse, in vivo, 47 mg/kg): 167 ± 2.12 ng/mL
- Total IgE ([4]; mouse, in vivo, 47 mg/kg): 0.65 ± 0.09
- Total IgG ([4]; mouse, in vivo, 47 mg/kg): 6.11 ± 0.25 mg/mL
- Total IgM ([4]; mouse, in vivo, 47 mg/kg): 1.02 ± 0.30
- DTH response (% increase in paw volume) ([4]; mouse, in vivo, 47 mg/kg, 90 d): 11.28 ± 3.69%
- HA tire (reciprocal of the last dilution showing positive reaction) ([4]; mouse, in vivo, 47 mg/kg, 90 d): 320
- PFC ([4]; mouse, in vivo, 47 mg/kg, 90 d): 1849 ± 780 per 10^6lymphocytes

Source: patent publication US9302967B2, “Substituted cathechols as inhibitors of IL-4 and IL-5 for the treatment of bronchial asthma” (Council of Scientific & Industrial Research, priority 2011, dated 2016)
